Where two headings read alike, the source gives them in different places.

Assay [1] addresses T1, AEA-DA lipid probe targets in Neuro2a cells (Mus musculus, UniProt Q8VC28).
T1 sequence (Q8VC28 1-323): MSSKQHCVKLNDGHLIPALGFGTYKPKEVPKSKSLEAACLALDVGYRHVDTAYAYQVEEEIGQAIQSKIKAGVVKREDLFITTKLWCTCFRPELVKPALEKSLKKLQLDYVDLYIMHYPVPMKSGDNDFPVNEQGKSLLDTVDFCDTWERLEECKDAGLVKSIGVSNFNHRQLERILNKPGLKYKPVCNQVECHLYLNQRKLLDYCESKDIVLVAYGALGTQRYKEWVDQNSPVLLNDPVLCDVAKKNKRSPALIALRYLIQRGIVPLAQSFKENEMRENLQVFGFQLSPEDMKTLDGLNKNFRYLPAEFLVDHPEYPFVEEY

In assay [2] the target is T2, AEA-DA lipid probe targets in Neuro2a cells (Mus musculus, UniProt Q3U9G9).
T2 sequence (Q3U9G9 1-626): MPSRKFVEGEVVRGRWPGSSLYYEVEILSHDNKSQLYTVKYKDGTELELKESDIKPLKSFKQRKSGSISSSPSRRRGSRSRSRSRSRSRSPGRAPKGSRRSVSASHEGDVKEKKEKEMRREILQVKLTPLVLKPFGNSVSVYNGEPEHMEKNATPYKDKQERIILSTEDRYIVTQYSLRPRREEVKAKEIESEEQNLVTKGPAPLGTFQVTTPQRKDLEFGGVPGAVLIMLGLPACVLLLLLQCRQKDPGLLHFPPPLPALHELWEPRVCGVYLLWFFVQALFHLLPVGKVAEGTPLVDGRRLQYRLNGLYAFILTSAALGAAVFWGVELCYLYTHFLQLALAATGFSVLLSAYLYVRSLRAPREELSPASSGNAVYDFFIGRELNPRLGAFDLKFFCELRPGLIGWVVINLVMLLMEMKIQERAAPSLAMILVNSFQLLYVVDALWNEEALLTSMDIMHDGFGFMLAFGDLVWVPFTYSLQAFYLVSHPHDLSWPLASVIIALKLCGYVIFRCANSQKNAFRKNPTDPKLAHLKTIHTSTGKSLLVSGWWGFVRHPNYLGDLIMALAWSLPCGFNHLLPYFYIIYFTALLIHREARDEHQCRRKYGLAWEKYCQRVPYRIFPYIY

Assay [3] addresses AEA-DA lipid probe targets in Neuro2a cells (Mus musculus, UniProt Q9CQ45).
Assay [4] addresses T3, AEA-DA lipid probe targets in Neuro2a cells (Mus musculus, UniProt P46638).
T3 sequence (P46638 1-218): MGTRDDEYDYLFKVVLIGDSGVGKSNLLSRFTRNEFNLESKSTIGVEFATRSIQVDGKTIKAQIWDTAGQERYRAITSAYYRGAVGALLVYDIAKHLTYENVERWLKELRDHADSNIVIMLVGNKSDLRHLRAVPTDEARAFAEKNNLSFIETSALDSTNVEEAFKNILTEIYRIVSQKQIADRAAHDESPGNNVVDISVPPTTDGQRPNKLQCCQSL

Assay [5] addresses T4, AEA-DA lipid probe targets in Neuro2a cells (Mus musculus, UniProt Q8R2Y0).
T4 sequence (Q8R2Y0 1-336): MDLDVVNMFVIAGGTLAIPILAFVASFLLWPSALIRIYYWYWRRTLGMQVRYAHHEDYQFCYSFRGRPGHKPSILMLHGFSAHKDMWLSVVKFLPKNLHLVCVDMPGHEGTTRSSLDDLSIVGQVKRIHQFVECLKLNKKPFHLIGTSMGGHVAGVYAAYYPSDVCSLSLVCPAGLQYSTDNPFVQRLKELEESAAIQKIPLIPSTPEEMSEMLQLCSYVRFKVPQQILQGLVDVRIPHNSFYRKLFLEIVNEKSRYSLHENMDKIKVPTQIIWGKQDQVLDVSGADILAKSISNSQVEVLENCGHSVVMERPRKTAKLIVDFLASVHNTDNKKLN
The settings on record: for SILAC ratio, ABHD6 (Q8R2Y0): Neuro2a cells, AEA-DA probe.

Assay [6] concerns the target AEA-DA lipid probe targets in Neuro2a cells (Mus musculus, UniProt P97300). The settings on record: competitor 25 μM; for SILAC ratio, NPTN (Q9Y639): Neuro2a cells, AEA-DA probe.
For assay [7], the target named is T5, AEA-DA lipid probe targets in Neuro2a cells (Mus musculus, UniProt Q9CQF9).
T5 sequence (Q9CQF9 29-505): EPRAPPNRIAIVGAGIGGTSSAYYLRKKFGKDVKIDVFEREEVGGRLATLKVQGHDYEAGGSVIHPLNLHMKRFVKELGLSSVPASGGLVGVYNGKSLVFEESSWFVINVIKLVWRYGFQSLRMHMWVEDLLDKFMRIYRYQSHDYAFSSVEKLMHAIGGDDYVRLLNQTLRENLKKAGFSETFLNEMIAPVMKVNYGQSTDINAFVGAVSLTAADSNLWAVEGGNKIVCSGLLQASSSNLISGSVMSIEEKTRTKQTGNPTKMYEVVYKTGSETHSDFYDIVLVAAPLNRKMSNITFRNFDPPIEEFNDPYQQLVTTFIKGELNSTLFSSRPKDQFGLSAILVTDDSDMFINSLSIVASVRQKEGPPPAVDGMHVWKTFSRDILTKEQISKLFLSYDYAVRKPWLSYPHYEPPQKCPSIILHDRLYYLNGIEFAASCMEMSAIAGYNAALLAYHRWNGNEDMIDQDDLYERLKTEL

The target in assay [8] is AEA-DA lipid probe targets in Neuro2a cells (Mus musculus, UniProt Q9EPE9).
Assay [9] has as its target AEA-DA lipid probe targets in Neuro2a cells (Mus musculus, UniProt Q9Z0V7).

Sequence of AEA-DA lipid probe targets in Neuro2a cells (Mus musculus, UniProt P97300) (P97300 29-397): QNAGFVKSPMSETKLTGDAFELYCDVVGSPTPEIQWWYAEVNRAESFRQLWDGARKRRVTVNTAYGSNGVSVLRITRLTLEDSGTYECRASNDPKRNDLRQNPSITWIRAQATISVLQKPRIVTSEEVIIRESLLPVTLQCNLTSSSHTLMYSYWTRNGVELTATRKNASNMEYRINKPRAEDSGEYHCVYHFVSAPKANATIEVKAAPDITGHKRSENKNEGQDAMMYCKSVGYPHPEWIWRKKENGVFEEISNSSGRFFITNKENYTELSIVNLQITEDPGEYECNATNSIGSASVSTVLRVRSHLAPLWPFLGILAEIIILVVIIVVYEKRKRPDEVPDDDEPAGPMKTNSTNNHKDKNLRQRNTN
Sequence of AEA-DA lipid probe targets in Neuro2a cells (Mus musculus, UniProt Q9Z0V7) (Q9Z0V7 whole entry): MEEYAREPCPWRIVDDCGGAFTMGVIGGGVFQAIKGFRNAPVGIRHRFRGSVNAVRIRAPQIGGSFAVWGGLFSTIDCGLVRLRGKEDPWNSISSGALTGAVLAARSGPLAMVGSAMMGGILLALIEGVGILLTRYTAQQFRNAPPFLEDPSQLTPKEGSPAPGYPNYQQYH
Sequence of AEA-DA lipid probe targets in Neuro2a cells (Mus musculus, UniProt Q9CQ45) (Q9CQ45 31-171): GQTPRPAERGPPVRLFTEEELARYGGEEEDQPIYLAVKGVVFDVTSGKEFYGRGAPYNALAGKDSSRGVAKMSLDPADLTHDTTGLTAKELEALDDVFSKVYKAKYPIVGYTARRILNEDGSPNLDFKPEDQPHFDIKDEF
Sequence of AEA-DA lipid probe targets in Neuro2a cells (Mus musculus, UniProt Q9EPE9) (Q9EPE9 whole entry): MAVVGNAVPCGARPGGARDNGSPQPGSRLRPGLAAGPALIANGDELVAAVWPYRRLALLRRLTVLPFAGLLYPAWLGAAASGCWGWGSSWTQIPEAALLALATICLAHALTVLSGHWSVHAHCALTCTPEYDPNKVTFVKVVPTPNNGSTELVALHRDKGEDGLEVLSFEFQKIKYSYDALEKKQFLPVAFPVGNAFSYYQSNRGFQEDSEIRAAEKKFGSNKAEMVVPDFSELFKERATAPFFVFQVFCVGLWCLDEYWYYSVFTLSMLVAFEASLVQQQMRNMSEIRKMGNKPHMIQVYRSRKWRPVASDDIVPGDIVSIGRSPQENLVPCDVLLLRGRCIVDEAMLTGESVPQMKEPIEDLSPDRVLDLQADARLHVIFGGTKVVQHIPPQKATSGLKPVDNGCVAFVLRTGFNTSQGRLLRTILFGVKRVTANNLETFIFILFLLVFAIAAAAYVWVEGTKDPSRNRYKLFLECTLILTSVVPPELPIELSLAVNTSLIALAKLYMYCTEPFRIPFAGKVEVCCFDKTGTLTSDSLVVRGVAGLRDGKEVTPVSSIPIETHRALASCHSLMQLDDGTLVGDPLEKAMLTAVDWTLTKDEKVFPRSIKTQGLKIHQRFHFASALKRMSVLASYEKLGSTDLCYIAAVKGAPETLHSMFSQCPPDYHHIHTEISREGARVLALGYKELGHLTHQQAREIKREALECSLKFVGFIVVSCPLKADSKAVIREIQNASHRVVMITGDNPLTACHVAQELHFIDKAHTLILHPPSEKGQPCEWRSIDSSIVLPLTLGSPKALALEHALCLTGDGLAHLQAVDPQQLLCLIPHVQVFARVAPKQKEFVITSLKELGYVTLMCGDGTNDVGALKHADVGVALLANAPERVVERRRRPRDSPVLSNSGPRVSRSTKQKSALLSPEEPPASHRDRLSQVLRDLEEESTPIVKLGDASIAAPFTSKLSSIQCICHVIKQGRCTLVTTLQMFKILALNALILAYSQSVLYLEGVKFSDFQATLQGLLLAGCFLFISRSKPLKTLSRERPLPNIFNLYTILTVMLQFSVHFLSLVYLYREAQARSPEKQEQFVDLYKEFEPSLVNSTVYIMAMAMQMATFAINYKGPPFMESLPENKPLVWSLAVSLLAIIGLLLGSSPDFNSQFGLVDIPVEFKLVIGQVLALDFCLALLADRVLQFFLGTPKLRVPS

On to `C=CCN(C)CCCCCCOc1ccc(C(=O)c2ccc(Br)cc2)c(F)c1` [Ro 48-8071, reference compound], for which, in [1] (competitor 25 μM), the “SILAC ratio Akr1c13” value is on record as 1.0. Also, the “SILAC ratio, Lbr” value in [2] (competitor 25 μM) came out at 1.9. In [3] (competitor 25 μM), the “SILAC ratio, Nenf” value turned out to be 0.9. Besides, in [4] (competitor 25 μM), the “SILAC ratio, Rab11b” value is listed as 1.3. In [5] (competitor 25 μM), the “SILAC ratio, ABHD6 (Q8R2Y0)” value is listed as 1.2 and the “SILAC ratio, Abhd6” value worked out at 1.2. In [6], the “SILAC ratio, NPTN (Q9Y639)” value was 2.0 and the “SILAC ratio, Nptn” value was 2.0. In addition, the “SILAC ratio, Pcyox1” value in assay [7] (competitor 25 μM) was 1.8. Further, in [8] (competitor 25 μM), the “SILAC ratio Atp13a1” value was 1.2. Moreover, the “SILAC ratio, Timm17b” value in assay [9] (competitor 25 μM) turned out to be 2.8.

As for `CN1CCN(C(=O)c2[nH]c3ccc([N+](=O)[O-])cc3c2-c2ccccc2)CC1` [MJN228, (4-Methylpiperazin-1-yl)(5-nitro-3-phenyl-1H-indol-2-yl)methanone], the “SILAC ratio Akr1c13” value in assay [1] (competitor 25 μM) and in assay [1] (competitor 50 μM) was 1.0 in each case. Also, the “SILAC ratio, Lbr” value came to 1.1 in assay [2] (competitor 10 μM), 1.3 in [2] (competitor 25 μM), 1.5 in assay [2] (competitor 50 μM) and 1.8 in [2] (competitor 100 μM). Further, the “SILAC ratio, Nenf” value in [3] (competitor 10 μM) was 1.3; in assay [3] (competitor 25 μM), 1.3; in assay [3] (competitor 50 μM), 1.8; in [3] (competitor 100 μM), 1.7. In addition, the “SILAC ratio, Rab11b” value in assay [4] (competitor 10 μM) turned out to be 1.2; in assay [4] (competitor 25 μM), 1.6; in assay [4] (competitor 50 μM) it was 1.8; in assay [4] (competitor 100 μM), 2.4. Moreover, the “SILAC ratio, ABHD6 (Q8R2Y0)” value in assay [5] (competitor 25 μM) came to 1.7. Besides, the “SILAC ratio, Abhd6” value in assay [5] (competitor 10 μM) amounted to 1.2; in assay [5] (competitor 25 μM) it was 1.7; in assay [5] (competitor 50 μM), 2.3; in assay [5] (competitor 100 μM) it was 2.9. Also, in assay [6], the “SILAC ratio, NPTN (Q9Y639)” value came out at 1.9. Moreover, in assay [6], the “SILAC ratio, Nptn” value is reported as 1.9. Besides, the “SILAC ratio, Pcyox1” value in [7] (competitor 10 μM) is listed as 1.2; in assay [7] (competitor 25 μM) it was 1.4; in [7] (competitor 50 μM), 1.6; in [7] (competitor 100 μM), 2.2. In addition, the “SILAC ratio Atp13a1” value in [8] (competitor 10 μM) is 1.3; in [8] (competitor 25 μM), 1.7; in [8] (competitor 50 μM) it was 2.0; in [8] (competitor 100 μM), 2.2. In addition, the “SILAC ratio, Timm17b” value came to 1.3 in assay [9] (competitor 10 μM), 1.5 in [9] (competitor 25 μM), 2.2 in assay [9] (competitor 50 μM) and 3.6 in assay [9] (competitor 100 μM).

For the compound `CCCCC/C=C\C/C=C\C/C=C\C/C=C\CCCC(=O)NCCO` [AEA, anandamide, reference compound], the “SILAC ratio Akr1c13” value in assay [1] (competitor 200 μM) amounted to 1.7. Moreover, the “SILAC ratio, Lbr” value in assay [2] (competitor 200 μM) was determined as 2.0. Also, in assay [3] (competitor 200 μM), the “SILAC ratio, Nenf” value was 1.4. Further, the “SILAC ratio, Rab11b” value in [4] (competitor 200 μM) was determined as 1.6. In assay [5] (competitor 200 μM), the “SILAC ratio, ABHD6 (Q8R2Y0)” value was 2.3 and the “SILAC ratio, Abhd6” value was found to be 2.3. The “SILAC ratio, Pcyox1” value in [7] (competitor 200 μM) is given as 1.7. Also, in assay [8] (competitor 200 μM), the “SILAC ratio Atp13a1” value is given as 1.4. Besides, in [9] (competitor 200 μM), the “SILAC ratio, Timm17b” value was found to be 1.6.

As for `CN1CCN(C(=O)c2c(-c3ccccc3)c3cc([N+](=O)[O-])ccc3n2C)CC1` [KML110, (1-Methyl-5-nitro-3-phenyl-1H-indol-2-yl)(4-methylpiperazin-1-yl)methanone], in assay [1] (competitor 25 μM), the “SILAC ratio Akr1c13” value was 1.1. Further, the “SILAC ratio, Lbr” value in [2] (competitor 25 μM) is 1.2. The “SILAC ratio, Nenf” value in [3] (competitor 25 μM) was 1.7. Also, the “SILAC ratio, Rab11b” value in [4] (competitor 25 μM) came to 1.5. The “SILAC ratio, Abhd6” value in [5] (competitor 25 μM) is 2.6. Further, the “SILAC ratio, Pcyox1” value in assay [7] (competitor 25 μM) was found to be 1.5. The “SILAC ratio Atp13a1” value in [8] (competitor 25 μM) is on record as 1.7. The “SILAC ratio, Timm17b” value in [9] (competitor 25 μM) is recorded as 1.8.

For the compound `O=C(/C=C/c1cccnc1)NCCCCC1CCN(C(=O)c2ccccc2)CC1` [FK-866, reference compound], in assay [1] (competitor 25 μM), the “SILAC ratio Akr1c13” value is reported as 1.0. In assay [2] (competitor 25 μM), the “SILAC ratio, Lbr” value is reported as 1.0. For the same compound, the “SILAC ratio, Nenf” value in assay [3] (competitor 25 μM) worked out at 2.6. Besides, the “SILAC ratio, Rab11b” value in [4] (competitor 25 μM) worked out at 1.2. In assay [5] (competitor 25 μM), the “SILAC ratio, ABHD6 (Q8R2Y0)” value is reported as 1.7 and the “SILAC ratio, Abhd6” value is listed as 1.7. Besides, in assay [6], the “SILAC ratio, NPTN (Q9Y639)” value is recorded as 1.2 and the “SILAC ratio, Nptn” value is 1.2. Further, the “SILAC ratio, Pcyox1” value in [7] (competitor 25 μM) came to 1.2. For the same compound, the “SILAC ratio Atp13a1” value in assay [8] (competitor 25 μM) was 1.1. For the same compound, in assay [9] (competitor 25 μM), the “SILAC ratio, Timm17b” value is given as 1.2.

The values above are taken from US10168342B2, “Lipid probes and uses thereof” (THE SCRIPPS RESEARCH INSTITUTE, priority 2015, dated 2019).
